The results in this text go back to patent publication US10196436B2, “Inhibitors of the fibroblast growth factor receptor” (BLUEPRINT MEDICINES CORPORATION, priority 2012, dated 2019).

In series [1] the test system is MDA-MB-453 cells, which harbor an activating FGFR4 mutation. Kind of series: Cellular potency: phosphorylation of Erk in MDA-MB-453 cells (immunoblot). The conditions noted are these: Homo sapiens, MDA-MB-453, 1 h, read-out: Potency (pErk IC50). Background: Immunoblotting shows a protein as a band on a membrane.
Experimental: Dose response in MDA-MB-453 cells, which harbor an activating FGFR4 mutation, was measured as follows. Briefly, MDA-MB-453 cells were seeded at 2.5×10^6 cells/6 well, and starved overnight. Compounds were added at varying concentrations (3000, 1000, 300, 100, and 30 nM) for 1 hour. Samples were collected and lysed for immunoblot analysis. The phosphorylation of Erk was measured and the average pErk value of three replicates was plotted with three parameter dose-response (inhibition) curve fit using Prism GraphPad software, which was used to determine the IC50 values.
The next series deals with wild type FGFR-1 (Homo sapiens (Human), UniProt P11362). Kind of series: FGFR-1 wild type assay at Km (Caliper electrophoretic mobility shift). The conditions noted are these: 400 uM ATP, 90 minutes, 25 C; read-out: FGFR1 IC50. The series is classed as biochemical. Here is the method:
(§1) In order to assess the activity of chemical compounds against the relevant kinase of interest, the Caliper LifeSciences electrophoretic mobility shift technology platform is utilized. Fluorescently labeled substrate peptide is incubated in the presence dosed levels of compounds, a set concentration of kinase and of ATP, so that a reflective proportion of the peptide is phosphorylated. At the end of the reaction, the mix of phosphorylated (product) and non-phosphorylated (substrate) peptides are passed through the microfluidic system of the Caliper LabChip® EZ Reader II, under an applied potential difference. The presence of the phosphate group on the product peptide provides a difference in mass and charge between the product peptide and the substrate peptide, resulting in a separation of the substrate and product pools in the sample. As the pools pass the LEDS within the instrument, these pools are detected and resolved as separate peaks. The ratio between these peaks therefore reflects the activity of the chemical matter at that concentration in that well, under those conditions.
The reaction was stopped by the addition of 70 ul of Stop buffer (100 mM HEPES pH 7.5, 0.015% Brij 35, 35 mM EDTA and 0.2% of Coating Reagent 3 (Caliper Lifesciences)). The plate was then read on a Caliper EZReader 2 (protocol settings: −1.9 psi, upstream voltage −700, downstream voltage −3000, post sample sip 35 s).

For another series, the target named is wild type FGFR-4 (Homo sapiens (Human), UniProt P22455). In words: FGFR-4 wild type assay at Km (Caliper electrophoretic mobility shift). The series is classed as biochemical. The conditions noted are these: for IC50: 400 uM ATP, 90 minutes, 25 C, read-out: FGFR4 IC50; for Ratio FGFR1/FGFR4: [IC50 for FGFR1]/[IC50 for FGFR4]. Here is the method:
as §1
The reaction was stopped by the addition of 70 ul of Stop buffer (100 mM HEPES pH 7.5, 0.015% Brij 35, 35 mM EDTA and 0.2% of Coating Reagent 3 (Caliper Lifesciences)). The plate was then read on a Caliper LabChip® EZ Reader II (protocol settings: −1.9 psi, upstream voltage −700, downstream voltage −3000, post sample sip 35 s).

For the next series, the system named is panel of kinase assays. In words: Kinase panel selectivity score from percent of DMSO control. The conditions noted are these: kinases with POC less than 10 at 3 μM divided by total distinct kinases tested.
The next series relates to Hep3B cells. Kind of series: Induction of apoptosis, Caspase-Glo3/7 assay in Hep3B cells. The series is classed as cell-based. The conditions noted are these: 6 hours. As to the method:
Hep3B cells were seeded at 20 k/well in 96-well white plates in 200 ul of DMEM/5% FBS overnight. The next day compound was added at a final DMSO concentration of 0.1% and incubated for 6 hours. Caspase activity was measured according to manufacture instruction (Caspase-Glo3/7 Assay (Promega)). Briefly, 100 ul of Caspase-Glo3/7 reagent was added to each well and incubated for 1 hour in the dark. Luminescence was measured using EnVision.

Another series deals with Hep3B xenograft tumors. In words: Hep3B liver cancer cell subcutaneous xenograft model, tumor growth inhibition. In kind it is in vivo, Mus Musculus. Here is the method: […] female nude mice (Mus Musculus) age 6 to 8 weeks were used. Tumor cell culture and inoculation: Hep3B cells were cultured with EMEM medium (Invitrogen, USA) supplemented with 10% FBS (Gibco, Australia). The cells were harvested in 90% confluence, and the viability was no less than 90%. Mice were implanted subcutaneously (s.c.) with 200 μL of 10×10^6 Hep3B cells in 50% Matrigel in the right flank at the beginning of the study.
Animal grouping and dosing schedule: Ten days after cell implantation, when tumors reached an average volume of 199 mm^3, 45 mice were selected based on tumor volume and randomly assigned to 5 treatment groups (n=9). The day of randomization was denoted as Do and the treatment was started from then on.
(§2) Tumor volume and body weight measurements: Tumor size was measured twice per week in two dimensions using a caliper, and the volume was expressed in mm^3 using the formula: V=0.5 a×b^2 where a and b were the long and short diameters of the tumor, respectively. Body weight was measured at least twice weekly.

Series [2] deals with GST-tagged recombinant wild type FGFR-4 (Homo sapiens (Human), UniProt P22455). In words: Covalency: mass spectrometry of protein-inhibitor complex. The series is classed as binding. To be noted: 300 uM compound, 75 uM FGFR-4, 3 hours room temperature then 13 hours 4° C. Here is the method:
The protein-inhibitor complex was then desalted using Pierce detergent removal columns (Thermo Pierce). The unmodified protein and protein-inhibitor complex were analyzed by electron spray mass spectrometry to determine their respective molecular weights.

The next series concerns the target FGFR-4 (Homo sapiens (Human), UniProt P22455). In words: Crystal structure of compound bound to FGFR-4. The series is classed as binding.
Series [3] is classed as in vivo. The conditions noted are these: Hep3B-bearing nude mice, entire study period, current dosages and dosing schedule. Here is the method: as §2
Body weight change (%) of Hep3B-bearing nude mice: FIG. 8 is a line graph depicting the body weight change (%) during the entire study period.

Structures are written as SMILES. Entries after “also recorded” stand apart in the source; their conditions may differ.

wild type FGFR-4, sequence (P22455 22-802): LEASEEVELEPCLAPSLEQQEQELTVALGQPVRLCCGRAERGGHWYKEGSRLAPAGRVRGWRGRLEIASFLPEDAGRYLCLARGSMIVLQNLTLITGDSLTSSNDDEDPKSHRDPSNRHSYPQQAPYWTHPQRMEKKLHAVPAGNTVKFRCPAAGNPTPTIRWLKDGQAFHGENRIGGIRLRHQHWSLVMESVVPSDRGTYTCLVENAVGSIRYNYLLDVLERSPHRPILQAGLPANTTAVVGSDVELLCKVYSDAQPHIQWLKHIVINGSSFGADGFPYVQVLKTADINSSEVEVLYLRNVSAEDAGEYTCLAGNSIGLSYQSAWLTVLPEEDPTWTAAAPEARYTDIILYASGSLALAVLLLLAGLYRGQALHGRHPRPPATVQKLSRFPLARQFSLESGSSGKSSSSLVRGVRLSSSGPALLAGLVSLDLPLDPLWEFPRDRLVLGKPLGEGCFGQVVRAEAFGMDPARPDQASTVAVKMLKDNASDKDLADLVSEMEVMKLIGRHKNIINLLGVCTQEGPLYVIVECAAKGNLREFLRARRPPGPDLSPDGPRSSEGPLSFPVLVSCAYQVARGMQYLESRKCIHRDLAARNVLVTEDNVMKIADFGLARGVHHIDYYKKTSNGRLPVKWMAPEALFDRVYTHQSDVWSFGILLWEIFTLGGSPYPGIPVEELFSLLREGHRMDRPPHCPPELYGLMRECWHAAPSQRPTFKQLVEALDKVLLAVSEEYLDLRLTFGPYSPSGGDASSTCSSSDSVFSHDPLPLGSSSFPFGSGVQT
wild type FGFR-1, sequence (P11362 22-822): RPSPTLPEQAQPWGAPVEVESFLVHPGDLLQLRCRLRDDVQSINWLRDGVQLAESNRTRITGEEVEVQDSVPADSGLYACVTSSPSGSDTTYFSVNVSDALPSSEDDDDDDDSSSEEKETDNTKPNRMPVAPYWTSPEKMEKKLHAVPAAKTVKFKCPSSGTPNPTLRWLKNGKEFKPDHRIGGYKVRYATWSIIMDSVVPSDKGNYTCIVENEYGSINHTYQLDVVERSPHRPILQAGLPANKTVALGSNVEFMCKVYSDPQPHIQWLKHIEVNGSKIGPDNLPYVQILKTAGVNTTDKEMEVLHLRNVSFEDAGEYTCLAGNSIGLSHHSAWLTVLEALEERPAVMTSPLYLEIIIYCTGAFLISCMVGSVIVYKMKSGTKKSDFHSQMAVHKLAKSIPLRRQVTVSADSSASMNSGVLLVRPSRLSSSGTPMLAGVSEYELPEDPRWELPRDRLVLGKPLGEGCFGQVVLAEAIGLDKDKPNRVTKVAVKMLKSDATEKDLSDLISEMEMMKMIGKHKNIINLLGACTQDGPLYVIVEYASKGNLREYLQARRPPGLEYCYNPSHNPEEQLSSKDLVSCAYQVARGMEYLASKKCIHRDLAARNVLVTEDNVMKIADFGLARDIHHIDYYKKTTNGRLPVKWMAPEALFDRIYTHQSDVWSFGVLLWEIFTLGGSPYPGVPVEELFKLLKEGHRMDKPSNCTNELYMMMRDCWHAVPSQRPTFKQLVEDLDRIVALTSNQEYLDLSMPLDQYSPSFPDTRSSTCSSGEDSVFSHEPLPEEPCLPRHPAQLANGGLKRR
FGFR-4, sequence (P22455 22-802): as the sequence (P22455 22-802) above
GST-tagged recombinant wild type FGFR-4, sequence (P22455 460-802): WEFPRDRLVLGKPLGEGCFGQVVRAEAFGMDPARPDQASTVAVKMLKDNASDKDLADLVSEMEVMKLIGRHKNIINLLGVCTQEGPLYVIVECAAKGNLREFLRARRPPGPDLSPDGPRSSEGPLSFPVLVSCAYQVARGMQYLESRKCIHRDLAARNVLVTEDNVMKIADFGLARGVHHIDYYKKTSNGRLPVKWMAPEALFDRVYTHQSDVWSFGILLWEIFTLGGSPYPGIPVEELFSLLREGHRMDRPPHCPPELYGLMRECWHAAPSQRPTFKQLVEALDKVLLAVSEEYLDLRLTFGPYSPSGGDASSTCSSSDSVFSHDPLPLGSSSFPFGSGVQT

Usually IC50 stands for the concentration that inhibits the measured activity by half. Turning to `C#CC(=O)NCc1cccn2c(-c3cc(NC(=O)NCC(F)(F)F)cc(OC(C)C)c3)cnc12` [COMPOUND 20, N-((3-(3-isopropoxy-5-(3-(2,2,2-trifluoroethyl)ureido)phenyl)imidazo[1,2-a]pyridin-8-yl)methyl)propiolamide], the values for the concentration for half-maximal inhibition (IC50) (in series [1]; on wild type FGFR-1) were over 100 nM and over 1000 nM, respectively.

With `C=CC(=O)N(CCCCN(CC)CC)c1ncc2cc(-c3c(Cl)c(OC)cc(OC)c3Cl)c(NC(=O)NC(C)(C)C)nc2n1` [COMPOUND 55, N-(7-(3-(tert-butyl)ureido)-6-(2,6-dichloro-3,5-dimethoxyphenyl)pyrido[2,3-d]pyrimidin-2-yl)-N-(4-(diethylamino)butyl) acrylamide], on wild type FGFR-4, the IC50 is under 10 nM and the “Ratio FGFR1/FGFR4” value is “A (the ratio is >500)”. For the same compound, in the series with panel of kinase assays, the “selectivity score [S(10) @3 μM]” value is at most 0.030.

`C=CC(=O)Nc1cccc(C)c1Nc1cc2c(cn1)cc(-c1cc(OC)cc(OC)c1)c(=O)n2C` [COMPOUND 18]: the IC50 was 10 to 100 nM in [1] and over 1000 nM at wild type FGFR-1.

Regarding `C=CC(=O)Nc1cccc(C)c1Nc1ncc2nc(-c3c(Cl)c(OC)cc(OC)c3Cl)c(=O)n(C)c2n1` [COMPOUND 45, N-(2-((6-(2,6-dichloro-3,5-dimethoxyphenyl)-8-methyl-7-oxo-7,8-dihydropteridin-2-yl)amino)-3-methylphenyl)acrylamide], the 50% inhibitory concentration (IC50) was under 1 nM in series [1], over 1000 nM at wild type FGFR-1 and under 10 nM on wild type FGFR-4. Besides, the “Ratio FGFR1/FGFR4” value at wild type FGFR-4 was “E (the ratio is >10 and <50)”.

For the compound `C=CC(=O)Nc1ccc(F)c(C)c1Nc1ncc2cc(-c3c(Cl)c(OC)cc(OC)c3Cl)ccc2n1` [COMPOUND 33], the half-maximal inhibitory concentration (IC50) in [1] is 1 to 10 nM; on wild type FGFR-1, over 1000 nM. Also, the “Ratio FGFR1/FGFR4” value on wild type FGFR-4 was “F (the ratio of [IC50 for FGFR1]/[IC50 for FGFR4] is less than 10)”.

For the compound `C=CC(=O)Nc1cccc(F)c1Nc1ncc2cc(-c3c(Cl)c(OC)cc(OC)c3Cl)ccc2n1` [COMPOUND 27], the IC50 was 1 to 10 nM in series [1] and under 10 nM on wild type FGFR-4. On wild type FGFR-4, the “Ratio FGFR1/FGFR4” value is “C (the ratio is ≥100 and <200)”. For the same compound, in the series with panel of kinase assays, the “selectivity score [S(10) @3 μM]” value is recorded as at most 0.030.

`COc1cc(CCc2cc(NC(=O)c3ccc(N4CC(C)NC(C)C4)cc3)n[nH]2)cc(OC)c1` (centres unmarked) [BGJ398, reference compound]: in the series on Hep3B cells, the “induction of apoptosis (caspase activity)” value is on record as “induction of apoptosis, although at a higher concentration”. In addition, the “tumor volume vs vehicle group” value with Hep3B xenograft tumors (20 mg/kg PO QD, entire study, nude mice) was “significant difference in tumor volume between BGJ398 (20 mg/kg PO QD) and vehicle groups was not observed”.

Take `CNC(=O)c1cc(Oc2ccc(NC(=O)Nc3ccc(Cl)c(C(F)(F)F)c3)cc2)ccn1` [Sorafenib, reference compound]: in the series on Hep3B xenograft tumors (30 mg/kg PO QD, Day 4 to Day 19, nude mice), the “tumor volume vs vehicle group” value is reported as “Statistically significant reduction of tumor volumes”.

As for `C=CC(=O)N(CCCCN(CC)CC)c1ncc2cc(-c3cc(OC)cc(OC)c3)c(NC(=O)NC(C)(C)C)nc2n1` [COMPOUND 52, N-(7-(3-(tert-butyl)ureido)-6-(3,5-dimethoxyphenyl)pyrido[2,3-d]pyrimidin-2-yl)-N-(4-(diethylamino)butyl)acrylamide], the “mass difference between protein-inhibitor complex and unmodified protein” value in series [2] is 575.1252 daltons. In addition, at wild type FGFR-4, the IC50 was under 10 nM; the “Ratio FGFR1/FGFR4” value was “C (the ratio is ≥100 and <200)”. The “residue bound in crystal structure” value at FGFR-4 is on record as “binds to the cysteine at residue 552 of FGFR-4”.

Take `C=CC(=O)Nc1cccc(C)c1Nc1ncc2cc(-c3c(Cl)c(OC)cc(OC)c3Cl)ccc2n1` [COMPOUND 25, N-(2-((6-(2,6-dichloro-3,5-dimethoxyphenyl)quinazolin-2-yl)amino)-3-methylphenyl)acrylamide]: the “induction of apoptosis (caspase activity)” value with Hep3B cells is “potent induction of apoptosis”. Further, in [1], the IC50 was 1 to 10 nM. Besides, the “tumor volume vs vehicle group” value is listed as “Statistically significant reduction of tumor volumes; also recorded: regressed” with Hep3B xenograft tumors (100 mg/kg PO BID, Day 4 to Day 19, nude mice) and “Statistically significant reduction of tumor volumes; also recorded: almost disappeared” in the series with Hep3B xenograft tumors (300 mg/kg PO BID, Day 4 to Day 19, nude mice). Besides, in [3], the “body weight change / tolerability” value was “well tolerated”.

Turning to `C=CC(=O)Nc1cccc(C)c1Nc1ncc2cc(-c3c(Cl)c(OC)cc(OC)c3Cl)cc(OC)c2n1` [COMPOUND 41], in series [1], the IC50 is 1 to 10 nM. Besides, at wild type FGFR-4, the IC50 was under 10 nM and the “Ratio FGFR1/FGFR4” value is “A (the ratio is >500)”. The “selectivity score [S(10) @3 μM]” value in the series on panel of kinase assays was at most 0.030.

Regarding `C=CC(=O)Nc1cccc(C)c1Nc1cc2c(cn1)cc(-c1c(Cl)c(OC)cc(OC)c1Cl)c(=O)n2C` [COMPOUND 39], the values for the IC50 (in series [1]; at wild type FGFR-1; at wild type FGFR-4) were under 1 nM, over 1000 nM and under 10 nM, respectively. For the same compound, the “Ratio FGFR1/FGFR4” value at wild type FGFR-4 was “E (the ratio is >10 and <50)”.
